Our source for the melting point values is patent US7101885B2, “Piperazinyl-aryloxy and piperazinyl-heteroaryloxy-n-aryl lactams” (Pfizer Inc, priority 2003, dated 2006).

Counter-ions that a name gives are not always drawn.

The compound `CN1CCN(c2ccccc2OC2CCN(c3ccc(N4CCCC4=O)cc3)C2=O)CC1` (stereo not drawn) [Example 3, 3-[2-(4-Methyl-piperazin-1-yl)-phenoxy]-1-(4-(2-oxo-pyrrolidin-1-yl)-phenyl)-pyrrolidin-2-one] came in with a melting point of 164 to 180 °C. As for `CN1CCN(c2ccccc2OC2CCCN(c3ccc(N4CCOC4=O)cc3)C2=O)CC1` (stereo not drawn) [Example 6, 3-[2-(4-Methyl-piperazin-1-yl)-phenoxy]-1-[4-(2-oxo-oxazolidin-3-yl)-phenyl]-piperidin-2-one], the figure is 71 to 88 °C; as for `CN1CCN(c2ncccc2OC2CCN(c3ccc(-c4ccon4)cc3)C2=O)CC1` (stereo not drawn) (as salt: salt) [Example 21, 1-[4-(3-Isoxazolyl)-phenyl]-3-[2-(4-methyl-piperazin-1-yl)-pyridin-3-yloxy]-pyrrolidin-2-one], 220 °C.

With `CN1CCN(c2ncccc2OC2CCN(c3ccc(C4CCOCC4)cc3)C2=O)CC1` (stereo not drawn) (as salt: salt) [Example 17, 3-[2-(4-Methyl-piperazin-1-yl)-pyridin-3-yloxy]-1-[4-(tetrahydro-pyran-4-yl)-phenyl]-pyrrolidin-2-one], the melting point is 219 to 248 °C. As for `CN1CCN(c2ncccc2OC2CCN(c3ccc(Br)cc3)C2=O)CC1` (stereo not drawn) (as salt: hydrochloride) [Example 8, 1-(4-Bromo-phenyl)-3-[2-(4-methyl-piperazin-1-yl)-pyridin-3-yloxy]-pyrrolidin-2-one], the figure is 72 to 82 °C; as for `CC(C)Oc1ccc(N2CCC(Oc3cccnc3N3CCN(C)CC3)C2=O)cc1` (stereo not drawn) (as salt: salt) [Example 15, 1-[4-(Isopropoxy)-phenyl]-3-[2-(4-methyl-piperazin-1-yl)-pyridin-3-yloxy]-pyrrolidin-2-one], 93 to 120 °C.

In the case of `CN1CCN(c2ccccc2OC2CCCN(c3ccc(C(F)(F)F)cc3)C2=O)CC1` (stereo not drawn) [Example 7, 3-[2-(4-Methyl-piperazin-1-yl)-phenoxy]-1-(4-trifluoromethyl-phenyl)-piperidin-2-one], the melting point is 81 to 110 °C. As for `CN1CCN(c2ccccc2OC2CCCN(c3ccc(N4CCCC4=O)cc3)C2=O)CC1` (stereo not drawn) [Example 5, 3-[2-(4-Methyl-piperazin-1-yl)-phenoxy]-1-[4-(2-oxo-pyrrolidin-1-yl)-phenyl]-piperidin-2-one], the figure is 68 to 75 °C; as for `CN1CCN(c2ncccc2OC2CCN(c3ccc(OC(F)(F)F)cc3)C2=O)CC1` (stereo not drawn) (as salt: salt) [Example 16, 1-[4-(Trifluoromethoxy)-phenyl]-3-[2-(4-methyl-piperazin-1-yl)-pyridin-3-yloxy]-pyrrolidin-2-one], 113 to 140 °C. `CN1CCN(c2ncccc2OC2CCN(c3ccc(N4CCCCC4=O)cc3)C2=O)CC1` (stereo not drawn) [Example 11, 1-(4-{3-[2-(4-Methyl-piperazin-1-yl)-pyridin-3-yloxy]-2-oxo-pyrrolidin-1-yl}-phenyl)-piperidin-2-one]: the melting point is 111 to 149 °C.

For the compound `CN1CCN(c2ncccc2OC2CCN(c3ccc(C(C)(C)C)cc3)C2=O)CC1` (stereo not drawn) (as salt: salt) [Example 9, 1-(4-tert-Butyl-phenyl)-3-[2-(4-methyl-piperazin-1-yl)-pyridin-3-yloxy]-pyrrolidin-2-one], the melting point lay in the range of 131 to 164 °C. As for `CN1CCN(c2ccccc2OC2CCN(c3ccc(C(F)(F)F)cc3)C2=O)CC1.Cl` (stereo not drawn), the figure is 137 to 162 °C.

What is called melting point is the temperature of the solid-liquid transition.
